{"source": "patent US6441020B1", "about": "“Protein kinase C modulators. W” (priority 1995, dated 2002)", "key": {"Raji cells": {"tested_on": "Raji cells", "settings": "Irie and Koshimizu 1988; cited from earlier work"}, "[1]": {"tested_on": "protein kinase C preparation", "settings": "Irie and Koshimizu 1988; cited from earlier work"}, "protein kinase C ε": {"biological_target": "T1, protein kinase C ε (Homo sapiens, UniProt Q02156)", "T1 construct": "Successful full-length expression of each isotype was confirmed by immunoblotting; made in house; host or cells: Sf9 or Sf158 insect cells (baculovirus)", "T1 sequence (Q02156 1-737)": "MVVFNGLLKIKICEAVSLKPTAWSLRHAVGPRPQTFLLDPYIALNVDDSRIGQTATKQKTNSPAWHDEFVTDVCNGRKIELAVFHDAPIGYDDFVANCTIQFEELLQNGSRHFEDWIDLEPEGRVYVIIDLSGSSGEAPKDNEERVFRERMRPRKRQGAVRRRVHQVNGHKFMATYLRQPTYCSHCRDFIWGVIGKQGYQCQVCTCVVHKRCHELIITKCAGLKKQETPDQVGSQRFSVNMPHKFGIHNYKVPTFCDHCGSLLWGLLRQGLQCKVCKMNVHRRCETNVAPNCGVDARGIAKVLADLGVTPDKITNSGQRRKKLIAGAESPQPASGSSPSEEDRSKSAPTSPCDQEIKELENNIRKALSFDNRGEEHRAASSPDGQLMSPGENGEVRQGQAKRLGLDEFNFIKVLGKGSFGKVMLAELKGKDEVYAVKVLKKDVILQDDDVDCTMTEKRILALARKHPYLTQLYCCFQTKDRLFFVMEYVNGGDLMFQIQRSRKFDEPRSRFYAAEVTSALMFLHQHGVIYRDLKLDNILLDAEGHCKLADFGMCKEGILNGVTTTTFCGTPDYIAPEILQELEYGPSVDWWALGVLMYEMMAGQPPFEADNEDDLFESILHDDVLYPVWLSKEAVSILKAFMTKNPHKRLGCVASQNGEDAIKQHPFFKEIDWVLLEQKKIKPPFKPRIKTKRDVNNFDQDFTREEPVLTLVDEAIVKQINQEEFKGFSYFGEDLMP", "assay": "[3H]PDBu receptor binding assay, protein kinase C ε", "from_the_text": "(§1) Recombinant protein kinase Cα, β1, γ, ε, η, θ and μ were obtained as crude cell preparations as follows. The protein kinase C isotypes were expressed in Sf9 or Sf158 insect cells using recombinant baculoviruses as described (Patel and Stabel, 1989; Stabel, Schaap and Parker, 1991; Johannes et al., 1994). In the case of the θ isotype, human protein kinase Cθ was cloned in the plasmid vector pFlag-Mac and the protein expressed in E. coli strain DH5. Successful full-length expression of each isotype was confirmed by immunoblotting of infected insect cell or E. coli lysates with isotype-specific antibodies (Marais and Parker, 1989) as described (Liyange et al, 1992). Sf9 or Sf158 cells were infected with recombinant baculovirus isolates containing the specified protein kinase C isotype cDNAs (Parker et al, 1986; Coussens et al, 1986) or a non-protein kinase C-related adenovirus E1 a gene (Patel and Jones, 1990). After 3 days infected and uninfected control cells were collected by centrifugation at 600 RCF for 15 min and frozen. […]\n(§2) The assay was carried out in 0.5 mL polypropylene centrifuge tubes. […] Specific and nonspecific binding values were then determined as described (Driedger and Blumberg, 1980b). […]"}, "protein kinase C μ": {"biological_target": "T2, protein kinase C μ (Homo sapiens, UniProt Q15139)", "T2 construct": "Successful full-length expression of each isotype was confirmed by immunoblotting; made in house; host or cells: Sf9 or Sf158 insect cells (baculovirus)", "T2 sequence (Q15139 1-912)": "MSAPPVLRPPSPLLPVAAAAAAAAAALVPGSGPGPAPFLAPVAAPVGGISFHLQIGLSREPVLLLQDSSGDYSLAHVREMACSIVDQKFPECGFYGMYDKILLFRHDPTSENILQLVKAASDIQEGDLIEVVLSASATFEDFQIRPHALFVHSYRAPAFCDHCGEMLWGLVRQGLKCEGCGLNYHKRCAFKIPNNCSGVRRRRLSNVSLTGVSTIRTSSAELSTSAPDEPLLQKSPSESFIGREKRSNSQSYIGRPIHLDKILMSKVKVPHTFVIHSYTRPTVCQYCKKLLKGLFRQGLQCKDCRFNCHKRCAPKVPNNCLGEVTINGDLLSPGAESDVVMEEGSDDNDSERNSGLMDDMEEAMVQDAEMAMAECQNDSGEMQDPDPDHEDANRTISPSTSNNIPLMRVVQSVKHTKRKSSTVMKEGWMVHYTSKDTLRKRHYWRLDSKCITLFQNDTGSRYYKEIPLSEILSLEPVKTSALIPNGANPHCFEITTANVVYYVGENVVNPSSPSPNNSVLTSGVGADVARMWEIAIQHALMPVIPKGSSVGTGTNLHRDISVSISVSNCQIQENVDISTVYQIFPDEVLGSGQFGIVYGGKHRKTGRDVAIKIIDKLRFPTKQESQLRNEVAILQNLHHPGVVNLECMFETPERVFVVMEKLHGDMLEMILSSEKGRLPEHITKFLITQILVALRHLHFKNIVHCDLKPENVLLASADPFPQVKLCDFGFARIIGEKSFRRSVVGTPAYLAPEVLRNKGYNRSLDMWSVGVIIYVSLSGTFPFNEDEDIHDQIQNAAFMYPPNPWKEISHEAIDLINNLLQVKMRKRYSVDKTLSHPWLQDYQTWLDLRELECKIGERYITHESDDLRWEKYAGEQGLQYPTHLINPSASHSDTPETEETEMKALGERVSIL", "assay": "[3H]PDBu receptor binding assay, protein kinase C μ", "from_the_text": "as §1, §2"}, "protein kinase C δ": {"biological_target": "T3, protein kinase C δ (Homo sapiens, UniProt Q05655)", "T3 construct": "made in house", "T3 sequence (Q05655 whole entry)": "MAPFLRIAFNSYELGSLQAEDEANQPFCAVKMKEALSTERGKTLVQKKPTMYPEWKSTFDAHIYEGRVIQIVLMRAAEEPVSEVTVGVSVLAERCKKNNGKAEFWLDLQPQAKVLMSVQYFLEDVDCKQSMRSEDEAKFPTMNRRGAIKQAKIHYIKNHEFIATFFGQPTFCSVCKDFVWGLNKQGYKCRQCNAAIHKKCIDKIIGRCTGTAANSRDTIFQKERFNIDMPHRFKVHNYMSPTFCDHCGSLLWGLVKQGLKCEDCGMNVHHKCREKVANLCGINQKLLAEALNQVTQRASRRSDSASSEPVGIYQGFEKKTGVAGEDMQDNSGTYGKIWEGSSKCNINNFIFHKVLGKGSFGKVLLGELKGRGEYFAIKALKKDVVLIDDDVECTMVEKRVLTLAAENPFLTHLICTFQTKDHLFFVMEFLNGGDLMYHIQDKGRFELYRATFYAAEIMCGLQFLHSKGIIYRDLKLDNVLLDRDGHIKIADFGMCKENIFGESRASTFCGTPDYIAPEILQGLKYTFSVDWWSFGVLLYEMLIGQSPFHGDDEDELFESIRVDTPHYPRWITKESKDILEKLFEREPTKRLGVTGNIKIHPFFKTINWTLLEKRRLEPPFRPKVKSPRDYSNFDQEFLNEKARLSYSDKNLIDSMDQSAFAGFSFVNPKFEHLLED", "assay": "[3H]PDBu receptor binding assay, protein kinase C δ"}, "[2]": {"tested_on": "phorbol 12-myristate 13-acetate induced ear inflammation/erythema", "assay": "Mouse ear anti-inflammatory test against phorbol 12-myristate 13-acetate", "format": "in vivo, mice", "procedure": "Method: A stock solution of 300 pmoles of the standard inflammatory compound phorbol 12-myristate 13-acetate per 5 μL acetone was prepared. This solution was used to prepare ten-fold dilutions of N^1,14-O-digeranyl-(9S,12S)-indolactam V, prepared as in Example 8, covering concentrations of the latter ranging from 3,500 to 350,000 pmoles per 5 μL."}, "protein kinase Cα": {"biological_target": "T4, protein kinase Cα (Bos taurus, UniProt P04409)", "T4 construct": "Successful full-length expression of each isotype was confirmed by immunoblotting; made in house; host or cells: Sf9 or Sf158 insect cells (baculovirus)", "assay": "[3H]PDBu receptor binding assay, protein kinase C α", "from_the_text": "as §1, §2"}, "human protein kinase Cθ": {"biological_target": "T5, human protein kinase Cθ (Homo sapiens, UniProt Q04759)", "T5 construct": "Successful full-length expression of each isotype was confirmed by immunoblotting; FLAG (from vector pFlag-Mac); made in house; host or cells: E. coli strain DH5", "T5 sequence (Q04759 whole entry)": "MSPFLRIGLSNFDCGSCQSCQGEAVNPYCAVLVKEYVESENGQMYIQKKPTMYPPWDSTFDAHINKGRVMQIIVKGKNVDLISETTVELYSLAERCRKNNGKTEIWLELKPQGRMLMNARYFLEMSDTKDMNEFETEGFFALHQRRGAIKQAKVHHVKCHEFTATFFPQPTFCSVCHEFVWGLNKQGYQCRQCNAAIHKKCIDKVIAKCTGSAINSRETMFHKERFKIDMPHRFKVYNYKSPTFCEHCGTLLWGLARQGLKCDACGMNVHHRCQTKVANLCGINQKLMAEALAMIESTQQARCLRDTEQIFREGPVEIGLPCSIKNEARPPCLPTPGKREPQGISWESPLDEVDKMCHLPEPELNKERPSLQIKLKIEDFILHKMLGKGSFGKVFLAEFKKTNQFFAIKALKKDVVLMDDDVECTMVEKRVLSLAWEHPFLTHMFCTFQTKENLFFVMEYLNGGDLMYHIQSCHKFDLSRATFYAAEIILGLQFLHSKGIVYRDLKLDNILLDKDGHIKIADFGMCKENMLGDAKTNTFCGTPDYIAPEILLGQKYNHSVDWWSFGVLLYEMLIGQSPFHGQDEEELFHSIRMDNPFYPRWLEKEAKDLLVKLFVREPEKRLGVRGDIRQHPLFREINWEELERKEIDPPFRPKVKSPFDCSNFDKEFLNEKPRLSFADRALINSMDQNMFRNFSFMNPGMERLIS", "assay": "[3H]PDBu receptor binding assay, protein kinase C θ", "from_the_text": "as §1, §2"}, "protein kinase C γ": {"biological_target": "T6, protein kinase C γ (Bos taurus, UniProt P05128)", "T6 construct": "Successful full-length expression of each isotype was confirmed by immunoblotting; made in house; host or cells: Sf9 or Sf158 insect cells (baculovirus)", "assay": "[3H]PDBu receptor binding assay, protein kinase C γ", "from_the_text": "as §1, §2"}, "protein kinase C η": {"biological_target": "T7, protein kinase C η (Homo sapiens, UniProt P24723)", "T7 construct": "Successful full-length expression of each isotype was confirmed by immunoblotting; made in house; host or cells: Sf9 or Sf158 insect cells (baculovirus)", "T7 sequence (P24723 whole entry)": "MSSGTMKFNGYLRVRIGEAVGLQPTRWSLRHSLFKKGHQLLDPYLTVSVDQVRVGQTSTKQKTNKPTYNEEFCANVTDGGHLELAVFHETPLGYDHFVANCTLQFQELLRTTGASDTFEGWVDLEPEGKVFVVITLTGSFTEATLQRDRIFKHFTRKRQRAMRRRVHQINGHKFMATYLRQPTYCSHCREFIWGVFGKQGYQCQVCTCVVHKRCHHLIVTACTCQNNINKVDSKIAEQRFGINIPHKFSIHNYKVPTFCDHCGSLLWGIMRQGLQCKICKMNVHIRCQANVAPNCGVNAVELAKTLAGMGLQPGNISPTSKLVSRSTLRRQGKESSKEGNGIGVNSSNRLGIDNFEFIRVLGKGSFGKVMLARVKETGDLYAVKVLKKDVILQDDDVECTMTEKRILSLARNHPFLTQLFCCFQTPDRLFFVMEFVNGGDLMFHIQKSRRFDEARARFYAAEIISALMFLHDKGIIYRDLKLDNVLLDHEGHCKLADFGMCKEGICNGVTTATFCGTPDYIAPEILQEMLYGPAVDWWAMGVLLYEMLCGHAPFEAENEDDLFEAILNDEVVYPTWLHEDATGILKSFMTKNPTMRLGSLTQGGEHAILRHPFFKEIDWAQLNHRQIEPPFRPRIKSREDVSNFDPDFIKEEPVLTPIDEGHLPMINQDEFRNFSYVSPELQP", "assay": "[3H]PDBu receptor binding assay, protein kinase C η", "from_the_text": "as §1, §2"}}}
{"molecule": "CCCCOC[C@@H]1Cc2c[nH]c3cccc(c23)N(C)[C@@H](C(C)C)C(=O)N1", "note": "[(−)-14-O-butylindolactam V]", "values": [{"measurement": "Induction of Epstein-Barr virus early antigen", "setting": "Raji cells", "value": "no induction of the Epstein-Barr virus early antigen in Raji cells could be detected"}]}
{"molecule": "CCCCCCOC[C@@H]1Cc2c[nH]c3cccc(c23)N(C)[C@@H](C(C)C)C(=O)N1", "note": "[(−)-O-hexylindolactam V, 14-O-hexyl-(9S,12S)-indolactam V]", "values": [{"measurement": "Induction of Epstein-Barr virus early antigen", "setting": "Raji cells", "value": "no induction of the Epstein-Barr virus early antigen in Raji cells could be detected"}]}
{"molecule": "(−)-indolactam V", "values": [{"measurement": "Induction of Epstein-Barr virus early antigen", "setting": "Raji cells", "value": "very active"}, {"measurement": "Inhibition of binding of [3H]PMA to a protein kinase C preparation", "setting": "[1]", "value": "very active"}]}
{"molecule": "CC(C)=CCC/C(C)=C/COC[C@@H]1Cc2cn(C/C=C(\\C)CCC=C(C)C)c3cccc(c23)N(C)[C@@H](C(C)C)C(=O)N1", "note": "[N^1,14-O-digeranyl-(9S,12S)-indolactam V, N^1,14-O-Digeranyl-(9S,12S)-indolactam V]", "values": [{"measurement": "Ki", "setting": "protein kinase C ε", "value": 300, "unit": "nM"}, {"measurement": "Ki", "setting": "protein kinase C μ", "value": 500, "unit": "nM"}, {"measurement": "Ki", "setting": "protein kinase C δ", "value": 900, "unit": "nM"}, {"measurement": "Persistence of inhibition of PMA induced ear inflammation", "setting": "[2]; mouse ear, highest concentration (350,000 pmoles per 5 μL), observation to 48 hours", "value": "inhibition persisting for the duration of the experiment at the highest concentration"}, {"measurement": "Inhibition of phorbol 12-myristate 13-acetate induced ear inflammation/erythema", "setting": "[2]; mouse right ear, topical 5 μL acetone, 300 pmoles PMA, test compound 3,500 to 350,000 pmoles per 5 μL, observed 1 to 48 hours", "value": "Inhibition of the phorbol 12-myristate 13-acetate induced inflammation was observed at the medium and high concentrations"}, {"measurement": "Ki", "setting": "protein kinase Cα", "value": 5900, "unit": "nM"}, {"measurement": "Ki", "setting": "human protein kinase Cθ", "value": 900, "unit": "nM"}, {"measurement": "Ki", "setting": "protein kinase C γ", "value": 6500, "unit": "nM"}, {"measurement": "Ki", "setting": "protein kinase C η", "value": 500, "unit": "nM"}]}
{"molecule": "COC[C@@H]1Cc2c[nH]c3cccc(c23)N(C)[C@@H](C(C)C)C(=O)N1", "note": "[(−)-14-O-methylindolactam V, 14-O-methyl-(9S,12S)-indolactam V]", "values": [{"measurement": "Induction of Epstein-Barr virus early antigen", "setting": "Raji cells", "value": "no induction of the Epstein-Barr virus early antigen in Raji cells could be detected"}, {"measurement": "Inhibition of binding of [3H]PMA to a protein kinase C preparation", "setting": "[1]", "value": "did not measurably inhibit"}]}
